Measurements: patent publication US11970498B2, “CDK2 inhibitors” (BLUEPRINT MEDICINES CORPORATION, priority 2021, dated 2024)

Legend:
[1] = biological target: T1, CDK1/Cyclin B1, GST-tag (Homo sapiens, UniProt P06493); assay: CDK1/Cyclin B1 biochemical phosphorylation assay (Caliper mobility shift); details: apparent IC50; 1.0 mM ATP or ATP Km; 1.5 nM enzyme; 25° C.
T1 construct: GST
In short: (§1)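 Caliper electrophoretic separation of substrate and phosphopeptide gave apparent IC50s. Enzymes: CDK1/Cyclin B1 GST-tag 1.5 nM, CDK2/Cyclin E 1.25 nM; ATP 1.0 mM or at Km; 7.5 µM FL-peptide; pH 7.5 HEPES buffer, 1% DMSO; room temperature until 10–20% phosphorylated, then EDTA quench.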

[2] = biological target: CDK2/Cyclin E (Homo sapiens, UniProt P24941); assay: CDK2/Cyclin E biochemical phosphorylation assay (Caliper mobility shift); details: apparent IC50; 1.0 mM ATP or ATP Km; 1.25 nM enzyme; 25° C.; read-out: CDK2/cyclin E1 IC50
In short: as §1

T1 sequence (P06493 whole entry): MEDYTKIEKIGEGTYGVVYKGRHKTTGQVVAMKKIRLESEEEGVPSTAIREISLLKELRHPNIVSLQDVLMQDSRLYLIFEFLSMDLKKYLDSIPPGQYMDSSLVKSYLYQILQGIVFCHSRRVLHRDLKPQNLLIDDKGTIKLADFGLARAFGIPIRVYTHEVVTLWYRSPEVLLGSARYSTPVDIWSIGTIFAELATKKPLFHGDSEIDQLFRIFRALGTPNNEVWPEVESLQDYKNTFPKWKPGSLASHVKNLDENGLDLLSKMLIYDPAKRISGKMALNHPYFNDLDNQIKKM
T1 sequence (P14635 whole entry partner): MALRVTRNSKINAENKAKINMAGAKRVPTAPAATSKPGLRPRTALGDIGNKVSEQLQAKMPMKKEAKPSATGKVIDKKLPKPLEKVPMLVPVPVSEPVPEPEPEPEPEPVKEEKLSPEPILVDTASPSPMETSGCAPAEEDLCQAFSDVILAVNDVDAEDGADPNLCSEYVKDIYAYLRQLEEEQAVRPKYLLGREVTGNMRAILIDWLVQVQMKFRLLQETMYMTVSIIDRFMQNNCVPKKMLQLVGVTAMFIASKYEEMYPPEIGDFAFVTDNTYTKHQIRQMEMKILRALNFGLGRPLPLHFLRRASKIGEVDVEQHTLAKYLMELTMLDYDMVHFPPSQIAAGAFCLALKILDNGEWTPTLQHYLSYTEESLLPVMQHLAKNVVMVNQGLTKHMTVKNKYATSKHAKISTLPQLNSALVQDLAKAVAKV

SMILES	IC50 [1]	IC50 [2]
Fc1nn(CC2CCOCC2)c2nc(Nc3cc(OC(F)F)[nH]n3)cnc12 [Example 117, N-(5-(difluoromethoxy)-1H-pyrazol-3-yl)-3-fluoro-1-((tetrahydro-2H-pyran-4-yl)methyl)-1H-pyrazolo[3,4-b]pyrazin-6-amine]	100 to 500 nM	≤ 10 nM
C[C@@H](C1COC1)n1ncc2ncc(Nc3cc(OC(F)F)[nH]n3)nc21 [Example 72, (S)-N-(5-(difluoromethoxy)-1H-pyrazol-3-yl)-1-(1-(oxetan-3-yl)ethyl)-1H-pyrazolo[3,4-b]pyrazin-6-amine]	≥ 500 nM	≤ 10 nM
COc1ncccc1[C@H](C)n1ncc2ncc(Nc3cc(OC(F)F)[nH]n3)nc21 [Example 59, (S)-N-(5-(difluoromethoxy)-1H-pyrazol-3-yl)-1-(1-(2-methoxypyridin-3-yl)ethyl)-1H-pyrazolo[3,4-b]pyrazin-6-amine]	≥ 500 nM	≤ 10 nM
FC(F)Oc1cc(Nc2cnc3cnn(C[C@@]4(F)CCOC4)c3n2)n[nH]1 (single isomer, unassigned) [Example 167, (S)-N-(5-(difluoromethoxy)-1H-pyrazol-3-yl)-1-((3-fluorotetrahydrofuran-3-yl)methyl)-1H-pyrazolo[3,4-b]pyrazin-6-amine or (R)-N-(5-(difluoromethoxy)-1H-pyrazol-3-yl)-1-((3-fluorotetrahydrofuran-3-yl)methyl)-1H-pyrazolo[3,4-b]pyrazin-6-amine]	≥ 500 nM	20 to 30 nM
COc1cc(Nc2cnc3cnn(C[C@H]4CCOC4)c3n2)n[nH]1 [Example 70, (R)-N-(5-methoxy-1H-pyrazol-3-yl)-1-((tetrahydrofuran-3-yl)methyl)-1H-pyrazolo[3,4-b]pyrazin-6-amine]	100 to 500 nM	≤ 10 nM
FC(F)Oc1cc(Nc2cnc3cnn([C@H](c4ccccc4)C4COC4)c3n2)n[nH]1 (single isomer, unassigned) [Example 162, (R)-N-(5-(difluoromethoxy)-1H-pyrazol-3-yl)-1-(oxetan-3-yl(phenyl)methyl)-1H-pyrazolo[3,4-b]pyrazin-6-amine or (S)-N-(5-(difluoromethoxy)-1H-pyrazol-3-yl)-1-(oxetan-3-yl(phenyl)methyl)-1H-pyrazolo[3,4-b]pyrazin-6-amine]	≥ 500 nM	> 100 nM
FC(F)Oc1cc(Nc2cnc3cnn(Cc4cccc5[nH]ncc45)c3n2)n[nH]1 [Example 128, 1-((1H-indazol-4-yl)methyl)-N-(5-(difluoromethoxy)-1H-pyrazol-3-yl)-1H-pyrazolo[3,4-b]pyrazin-6-amine]	≥ 500 nM	30 to 100 nM
FC(F)Oc1cc(Nc2cnc3cnn(C4CCC(F)(F)CC4)c3n2)n[nH]1 [Example 44, 1-(4,4-difluorocyclohexyl)-N-(5-(difluoromethoxy)-1H-pyrazol-3-yl)-1H-pyrazolo[3,4-b]pyrazin-6-amine]	≥ 500 nM	10 to 20 nM
FC(F)Oc1cc(Nc2cnc3c(Cl)nn(CC4CCOCC4)c3n2)n[nH]1 [Example 56, 3-chloro-N-(5-(difluoromethoxy)-1H-pyrazol-3-yl)-1-((tetrahydro-2H-pyran-4-yl)methyl)-1H-pyrazolo[3,4-b]pyrazin-6-amine]	≥ 500 nM	10 to 20 nM
Cc1ncccc1Cn1ncc2ncc(Nc3cc(OC(F)F)[nH]n3)nc21 [Example 95, N-(5-(difluoromethoxy)-1H-pyrazol-3-yl)-1-((2-methylpyridin-3-yl)methyl)-1H-pyrazolo[3,4-b]pyrazin-6-amine]	≥ 500 nM	20 to 30 nM
FC(F)Oc1cc(Nc2cnc3cnn([C@H](C(F)F)C4CCOCC4)c3n2)n[nH]1 (single isomer, unassigned) [Example 28, (S)-1-(2,2-difluoro-1-(tetrahydro-2H-pyran-4-yl)ethyl)-N-(5-(difluoromethoxy)-1H-pyrazol-3-yl)-1H-pyrazolo[3,4-b]pyrazin-6-amine or (R)-1-(2,2-difluoro-1-(tetrahydro-2H-pyran-4-yl)ethyl)-N-(5-(difluoromethoxy)-1H-pyrazol-3-yl)-1H-pyrazolo[3,4-b]pyrazin-6-amine]	≥ 500 nM	20 to 30 nM
C[C@@H](c1cnccc1F)n1ncc2ncc(Nc3cc(OC(F)F)[nH]n3)nc21 (single isomer, unassigned) [Example 174, (R)-N-(5-(difluoromethoxy)-1H-pyrazol-3-yl)-1-(1-(4-fluoropyridin-3-yl)ethyl)-1H-pyrazolo[3,4-b]pyrazin-6-amine or (S)-N-(5-(difluoromethoxy)-1H-pyrazol-3-yl)-1-(1-(4-fluoropyridin-3-yl)ethyl)-1H-pyrazolo[3,4-b]pyrazin-6-amine]	≥ 500 nM	> 100 nM
O[C@H]1CC[C@@H](n2ncc3ncc(Nc4cc(OC(F)F)[nH]n4)nc32)C1 (single isomer, unassigned) [Example 207]	≥ 500 nM	10 to 20 nM
FC(F)Oc1cc(Nc2cnc3cnn(CC45CC(F)(C4)C5)c3n2)n[nH]1 [Example 116, N-(5-(difluoromethoxy)-1H-pyrazol-3-yl)-1-((3-fluorobicyclo[1.1.1]pentan-1-yl)methyl)-1H-pyrazolo[3,4-b]pyrazin-6-amine]	≥ 500 nM	≤ 10 nM
FC(F)Oc1cc(Nc2cnc3cnn(CC45COCC4C5)c3n2)n[nH]1 (stereo not shown) [Example 221, 1-(3-oxabicyclo[3.1.0]hexan-1-ylmethyl)-N-(5-(difluoromethoxy)-1H-pyrazol-3-yl)-1H-pyrazolo[3,4-b]pyrazin-6-amine]	≥ 500 nM	30 to 100 nM
O[C@H]1C[C@H](Cn2ncc3ncc(Nc4cc(OC(F)F)[nH]n4)nc32)C1 [Example 220, (1r,3r)-3-((6-((5-(difluoromethoxy)-1H-pyrazol-3-yl)amino)-1H-pyrazolo[3,4-b]pyrazin-1-yl)methyl)cyclobutan-1-ol]	≥ 500 nM	30 to 100 nM
COc1cc(Nc2cnc3cnn(CC4C5COCC54)c3n2)n[nH]1 (stereo not shown) [Example 138, 1-((3-oxabicyclo[3.1.0]hexan-6-yl)methyl)-N-(5-methoxy-1H-pyrazol-3-yl)-1H-pyrazolo[3,4-b]pyrazin-6-amine]	≥ 500 nM	20 to 30 nM
[2H]C([2H])([2H])Oc1cc(Nc2cnc3cnn(Cc4cccnc4)c3n2)n[nH]1 [Example 227, N-(5-(methoxy-d3)-1H-pyrazol-3-yl)-1-(pyridin-3-ylmethyl)-1H-pyrazolo[3,4-b]pyrazin-6-amine]	≥ 500 nM	10 to 20 nM
COc1cc(Nc2cnc3cnn(C[C@H]4CCCOC4)c3n2)n[nH]1 [Example 140, (R)-N-(5-methoxy-1H-pyrazol-3-yl)-1-((tetrahydro-2H-pyran-3-yl)methyl)-1H-pyrazolo[3,4-b]pyrazin-6-amine]	≥ 500 nM	10 to 20 nM
C[C@H](c1cc(F)ccn1)n1ncc2ncc(Nc3cc(OC(F)F)[nH]n3)nc21 (single isomer, unassigned) [Example 14, (R)—N-(5-(difluoromethoxy)-1H-pyrazol-3-yl)-1-(1-(4-fluoropyridin-2-yl)ethyl)-1H-pyrazolo[3,4-b]pyrazin-6-amine or (S)—N-(5-(difluoromethoxy)-1H-pyrazol-3-yl)-1-(1-(4-fluoropyridin-2-yl)ethyl)-1H-pyrazolo[3,4-b]pyrazin-6-amine]	≥ 500 nM	10 to 20 nM
